Reference: ChEMBL document CHEMBL1134371, “Molecular modeling studies of the Akt PH domain and its interaction with phosphoinositides” (J Med Chem, 2001)

Columns and labels:
[1] = biological target: RAC-alpha serine/threonine-protein kinase (Homo sapiens) (UniProt P31749); experiment: Binding activity for protein kinase B (Akt) PH domain
[2] = biological target: RAC-alpha serine/threonine-protein kinase (Homo sapiens) (UniProt P31749); experiment: Binding affinity for protein kinase B (Akt) PH domain
[3] = biological target: RAC-alpha serine/threonine-protein kinase (Homo sapiens) (UniProt P31749); experiment: Inhibition of binding to Protein kinase B (Akt) PH domain; parameters: scale not given: the % may be the effect or the level left
[4] = biological target: RAC-alpha serine/threonine-protein kinase (Homo sapiens) (UniProt P31749); experiment: Inhibition of protein kinase B (Akt) PH domain

Chain of RAC-alpha serine/threonine-protein kinase (Homo sapiens) (P31749 whole entry, the tested form may be a part): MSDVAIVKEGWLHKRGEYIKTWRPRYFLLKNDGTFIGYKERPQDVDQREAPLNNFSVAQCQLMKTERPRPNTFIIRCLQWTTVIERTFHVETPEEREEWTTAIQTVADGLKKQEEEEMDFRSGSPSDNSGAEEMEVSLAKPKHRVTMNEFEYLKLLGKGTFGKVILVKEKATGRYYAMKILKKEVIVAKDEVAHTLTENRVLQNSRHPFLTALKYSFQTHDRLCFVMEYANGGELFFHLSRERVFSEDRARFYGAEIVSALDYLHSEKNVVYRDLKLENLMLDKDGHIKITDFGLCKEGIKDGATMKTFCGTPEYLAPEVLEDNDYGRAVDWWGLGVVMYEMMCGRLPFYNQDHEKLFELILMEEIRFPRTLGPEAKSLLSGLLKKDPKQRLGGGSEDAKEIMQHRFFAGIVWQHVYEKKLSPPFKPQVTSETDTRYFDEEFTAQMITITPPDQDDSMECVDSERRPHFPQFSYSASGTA

Activity [1] | Ratio [2] | Activity [3] | Ratio [4] | SMILES
100% | 0.57 | – | – | CCCCCCCCCCCCCCCCCCCC(=O)OC(COC(=O)CCCCCCCCCCCCCCCCC)COP(=O)(O)OC1C(O)CC(OP(=O)(O)O)C(OP(=O)(O)O)C1O (configuration not stated)
– | – | – | 5 | CCCCCCCCCCCCCCCCCCOC[C@H](COC(=O)O[C@@H]1[C@H](O)[C@@H](CO)[C@@H](O)[C@H](O)[C@@H]1O)OC (stereo in doubt; 1)

The remaining lines, values behind:

SMILES | Activity [1] | Ratio [2] | Activity [3] | Ratio [4]
CCCCCCCCCCCCCCCCCCCC(=O)OC(COC(=O)CCCCCCCCCCCCCCCCC)COP(=O)(O)OC1C(O)C(OP(=O)(O)O)C(OP(=O)(O)O)C(OP(=O)(O)O)C1O (configuration not stated) | – | 0.4 | -35% | –
CCCCCCCCCCCCCCCCCCOC[C@H](COC(=O)O[C@@H]1[C@H](O)[C@@H](CO)[C@@H](O)[C@H](O)[C@@H]1O)OC (stereo in doubt; 2) | – | – | – | 32
CCCCCCCCCCCCCCCCCCCC(=O)OC(COC(=O)CCCCCCCCCCCCCCCCC)COP(=O)(O)OC1C(O)CCC(OP(=O)(O)O)C1O (configuration not stated) | 13% | – | – | –
